Test results from PMC6761529 (Antimicrobial Agents and Chemotherapy, 2019).
“And” between values parts separate entries of the source, which are not always exact repeats. Equal entries are not always repeated. Where two headings read alike, the source gives them in different places.

Legend:
CTX-M-15 [1] = target: T1, CTX-M-15 (Escherichia coli, UniProt Q9EXV5); assay: biochemical
Description: (§4) Kinetic parameters were calculated and analyzed using GraphPad Prism 6.
(§5) Diazabicyclooctanes were dissolved in DMSO (100 mM) and diluted to the desired concentration in 10 mM HEPES (pH 7.5) and 150 mM NaCl.

KPC-2 [2] = target: T2, KPC-2 (Klebsiella pneumoniae, UniProt Q9F663); details: after 24 hours of incubation; cited from earlier work
L2 [3] = target: T3, L2 (Stenotrophomonas maltophilia, UniProt Q9RBQ1); assay: IC50, nitrocefin hydrolysis after 10-minute preincubation, L2; assay type: biochemical
Description: as §4, §5

S. maltophilia K279a [4] = details: with avibactam; cited from earlier work
S. maltophilia K279a [5] = assay: MIC broth microdilution, S. maltophilia K279a; assay type: cell-based; details: for MIC: Stenotrophomonas maltophilia, K279A, read-out: MIC of β-lactam
Description: S. maltophilia K279a is a well-characterized isolate from Bristol, United Kingdom, and was obtained as previously reported ([46]).
(§1) MIC values were determined using broth microdilution, in triplicate, in cation-adjusted Mueller-Hinton broth (Sigma) according to the Clinical and Laboratory Standards Institute (CLSI) guidelines ([47]). […] Plates were incubated overnight at 37°C for 18 to 24 h, and the absorbance at 600 nm was read using a POLARstar Omega (BMG LabTech) plate reader.

[6] = test system: K. pneumoniae Ecl8 pUBYT KPC-3; assay: microbe, parasite or virus in culture; assay type: cell-based; details: Klebsiella pneumoniae
Source text: (§2) The pUBYT vector containing blaKPC-3 under the ISKpn7 promoter was used as a template for site-directed mutagenesis to create pUBYT containing blaKPC-2 and blaKPC-4 with the same promoter ([45]). The single point mutation in KPC-2 (Y274H) and double point mutations in KPC-4 (P104R, V240G) were introduced using a QuikChange Lightning site-directed mutagenesis kit (Agilent Genomics) with the primers specified in Table S1 in the supplemental material. Klebsiella pneumoniae Ecl8 was transformed with the resulting pUBYT constructs via electroporation.
as §1

[7] = test system: K. pneumoniae Ecl8 pUBYT KPC-4; assay: microbe, parasite or virus in culture; assay type: cell-based; details: Klebsiella pneumoniae
Source text: as §2, §1

[8] = test system: K. pneumoniae Ecl8 pUBYT KPC-2; assay: microbe, parasite or virus in culture; assay type: cell-based; details: Klebsiella pneumoniae
Source text: as §2, §1

K. pneumoniae Ecl8 pUBYT = assay: MIC broth microdilution, K. pneumoniae Ecl8 pUBYT (empty vector); assay type: cell-based; details: Klebsiella pneumoniae, ECL8PUBYT, read-out: MIC of β-lactam
Source text: as §2, §1

[9] = test system: KPC variants expressed in K. pneumoniae Ecl8; assay type: cell-based, Klebsiella pneumoniae; details: in the presence of 4 mg liter^−1 relebactam
Source text: as §2, §1

KPC-2 [10] = target: T2, KPC-2; assay type: biochemical; details: nitrocefin as substrate; standard error in parentheses, n = 3
Description: as §4

KPC-4 [11] = target: T4, KPC-4 (Klebsiella pneumoniae, UniProt Q9F663, P103R/V239G); assay: Steady-state nitrocefin hydrolysis, KPC-4; assay type: biochemical; details: nitrocefin as substrate; standard error in parentheses, n = 3
Description: as §4

KPC-3 [12] = target: T5, KPC-3 (Klebsiella pneumoniae, UniProt Q9F663, H272Y); assay type: biochemical; details: nitrocefin as substrate; standard error in parentheses, n = 3
Description: as §4

L2 [13] = target: T3, L2; assay: Direct competition of relebactam and nitrocefin (Kiapp, k2/K), L2; assay type: biochemical; details: Dixon plot, no preincubation; standard deviation in parentheses
Description: as §4
(2) E+I⇌k−1k1E:I⇌k−2k2E-I→k3E-I′→k4E+P
(§6) Complete progress curves were fitted to equation 5 in order to obtain values for kobs (pseudo-first-order rate constant for inactivation).(5) A=vf*t+(v0−vf)*((1−e^−kobs*t)/kobs)+A0
(§7) ([I]) according to equation 6, with the uncorrected value for k2/K (k2/K′) then equal to the slope of the line.(6) kobs=k−2+k2/K^′*[I]

[14] = target: Pseudomonas-derived cephalosporinase-3 (PDC-3); details: read-out: Kiapp; cited from earlier work
KPC-4 [15] = target: T4, KPC-4
Description: (§3) Final enzyme concentrations were as follows: 50 nM KPC-2, 5 nM KPC-3, 50 nM KPC-4, 50 pM CTX-M-15, and 50 pM L2. Complete progress curves were collected, and the results fitted to equation 8 to obtain koff.(8) A=vf*t+(v0−vf)*(1−e^−kofft)/koff+A0

KPC-2 [16] = target: T2, KPC-2; details: recombinant enzyme
Description: as §3

L2 [17] = target: T3, L2; details: recombinant enzyme
Description: as §3

KPC-3 [18] = target: T5, KPC-3
Description: as §3

CTX-M-15 [19] = target: T1, CTX-M-15; details: recombinant enzyme
Description: as §3

CTX-M-15 [20] = target: T1, CTX-M-15; assay: Direct competition of relebactam and nitrocefin (Kiapp, k2/K), CTX-M-15; assay type: biochemical
Description: as §4
(2) E+I⇌k−1k1E:I⇌k−2k2E-I→k3E-I′→k4E+P
as §6, §7

KPC-2 [21] = target: T2, KPC-2; parameters: method as in PMID 29627985; details: cited from earlier work
OXA-48 = target: OXA-48; parameters: method as in PMID 29627985; details: cited from earlier work
KPC-2 [22] = target: T2, KPC-2; details: cited from earlier work
[23] = test system: O=C(Cc1cccs1)N[C@@H]1C(=O)N2C(C(=O)O)=C(/C=C/c3ccc([N+](=O)[O-])cc3[N+](=O)[O-])CS[C@H]12; assay: purified protein, by the assay type; details: other: nitrocefin as substrate; standard error in parentheses, n = 3; pH 7.5; 25.0 °C
[24] = ECL8PUBYTKPC3, read-out: MIC of β-lactam, no inhibitor present
[25] = ECL8PUBYTKPC4, read-out: MIC of β-lactam, no inhibitor present
[26] = ECL8PUBYTKPC2, read-out: MIC of β-lactam, no inhibitor present

## NC(=O)[C@@H]1CC[C@@H]2CN1C(=O)N2OS(=O)(=O)O [Avibactam, avibactam]
CTX-M-15 [1]
  IC50: 0.0034 µM
KPC-2 [2]
  KPC-2 remaining acylated: 10%
L2 [3]
  IC50: 0.015 µM

## C[C@H]1[C@H](NC(=O)/C(=N\OC(C)(C)C(=O)O)c2csc(N)n2)C(=O)N1S(=O)(=O)O [Aztreonam, aztreonam]
S. maltophilia K279a [4]
  aztreonam MIC: 2 µg/mL
S. maltophilia K279a [5]; +REL (relebactam, 4 mg/liter)
  MIC: 8 µg/mL
S. maltophilia K279a [5]; no inhibitor present
  MIC: > 256 µg/mL
S. maltophilia K279a [5]; addition of relebactam
  aztreonam MIC: 8 µg/mL
S. maltophilia K279a [5]; without inhibitor
  aztreonam MIC: 256 µg/mL

## CC(C)(O/N=C(\C(=O)N[C@@H]1C(=O)N2C(C(=O)[O-])=C(C[n+]3ccccc3)CS[C@H]12)c1csc(N)n1)C(=O)O [Ceftazidime, ceftazidime]
[6]; ECL8PUBYTKPC3, read-out: MIC of β-lactam, +AVI (avibactam, 4 mg/liter)
  MIC: < 0.125 µg/mL
[6]; [24]
  MIC: 128 µg/mL
[7]; ECL8PUBYTKPC4, read-out: MIC of β-lactam, +AVI (avibactam, 4 mg/liter)
  MIC: 1 µg/mL
[7]; [25]
  MIC: 128 µg/mL
[8]; ECL8PUBYTKPC2, read-out: MIC of β-lactam, +AVI (avibactam, 4 mg/liter)
  MIC: 0.125 µg/mL
[8]; [26]
  MIC: 16 µg/mL
S. maltophilia K279a [5]; +AVI (avibactam, 4 mg/liter)
  MIC: 8 µg/mL
S. maltophilia K279a [5]; no inhibitor present
  MIC: 16 µg/mL
K. pneumoniae Ecl8 pUBYT
  MIC: < 0.125 µg/mL

## C[C@@H](O)[C@H]1C(=O)N2C(C(=O)O)=C(SCCN=CN)C[C@H]12 [Imipenem, imipenem]
[6]; ECL8PUBYTKPC3, read-out: MIC of β-lactam, +REL (relebactam, 4 mg/liter)
  MIC: < 0.125 µg/mL
[6]; [24]
  MIC: 16 µg/mL
[7]; ECL8PUBYTKPC4, read-out: MIC of β-lactam, +REL (relebactam, 4 mg/liter)
  MIC: 0.125 µg/mL
[7]; [25]
  MIC: 0.5 µg/mL
[8]; ECL8PUBYTKPC2, read-out: MIC of β-lactam, +REL (relebactam, 4 mg/liter)
  MIC: 0.5 µg/mL
[8]; [26]
  MIC: 64 µg/mL
[9]
  imipenem MICs in all KPC producers: ≤ 0.5 mg/L
S. maltophilia K279a [5]; +REL (relebactam, 4 mg/liter)
  MIC: 64 µg/mL
S. maltophilia K279a [5]; no inhibitor present
  MIC: 128 µg/mL
K. pneumoniae Ecl8 pUBYT
  MIC: < 0.0625 µg/mL

## O=C(Cc1cccs1)N[C@@H]1C(=O)N2C(C(=O)O)=C(/C=C/c3ccc([N+](=O)[O-])cc3[N+](=O)[O-])CS[C@H]12 [Nitrocefin, nitrocefin]
KPC-2 [10]
  Km: 18.3 µM
  kcat: 613 (9) s-1
KPC-4 [11]
  Km: 59 µM
  kcat: 166 (44) s-1
KPC-3 [12]
  Km: 36 µM
  kcat: 88 (8) s-1

## O=C(NC1CCNCC1)[C@@H]1CC[C@@H]2CN1C(=O)N2OS(=O)(=O)O [Relebactam, relebactam]
L2 [13]
  Ki: 3 µM and 2.7 µM
[14]
  Ki: 3.4 µM
KPC-4 [15]; KPC-4 vs KPC-2
  reduction in off-rate compared with KPC-2: ~4.5 fold
KPC-4 [15]; recombinant enzyme
  t1/2: 61 min
KPC-2 [16]
  t1/2: 13 min
L2 [17]
  t1/2: 21 min
KPC-3 [18]; KPC-3 vs KPC-2
  reduction in off-rate compared with KPC-2: ~4.5 fold
KPC-3 [18]; recombinant enzyme
  t1/2: 58 min
CTX-M-15 [19]
  t1/2: 30 min
CTX-M-15 [1]
  IC50: 0.4 µM
L2 [3]
  IC50: 0.47 µM
CTX-M-15 [20]
  Ki: 21 µM

## N#C[C@@H]1CC[C@@H]2CN1C(=O)N2OS(=O)(=O)O [WCK-4234]
KPC-2 [21]
  off rate: 0.00045 s⁻¹
OXA-48
  Ki: 0.29 µM

## O=C(NNC(=O)[C@@H]1CC[C@@H]2CN1C(=O)N2OS(=O)(=O)O)[C@@H]1CCCNC1 [WCK-5107, zidebactam]
KPC-2 [22]
  Ki value, fold higher than avibactam: 5 fold
  Ki value, fold higher than relebactam: 2 fold

## CTX-M-15 (Escherichia coli)
[23]
  Km: 63 (11) µM
  kcat: 312 (8) s-1
  kcat/Km: 5e+06 M⁻¹ s⁻¹

## L2 (Stenotrophomonas maltophilia)
[23]
  Km: 206 (27) µM
  kcat: 813 (41) s-1
  kcat/Km: 4e+06 M⁻¹ s⁻¹
